In patent US20240327392A1, “HETEROCYCLOALKYL-SUBSTITUTED POLYHETEROAZOLE DERIVATIVES AS MEDICAMENTS FOR TREATING AND/OR PREVENTING RS VIRUS INFECTIONS” (ALBIUS SCIENCES ALPHA PRIVATE LIMITED, priority 2021, published 2024):

What follows are compounds tested on human RS virus A2 strain (assay: In vitro test for anti-RS virus proliferation inhibitory activity (quantitative RT-PCR of RS virus RNA copy number in infected Vero cells)). Conditions: 72 h; Vero cells infected with human RS virus A2 strain, 3 days of incubation, RS virus N gene RNA copy number by quantitative RT-PCR; read-out: Anti-RS virus Activity.
Type: cell-based
Experimental: A mixture of Vero cells (3.4×10^5 cells/mL) and human RS virus A2 strain (1.7×10^4 TCID50/mL) (EMEM medium supplemented with 10% FCS) was added to a 96-well plate at 50 μL/well, and the 10% FCS-supplemented EMEM medium adjusted to the desired final concentration of the compounds to be tested was added at 50 μL/well, followed by incubating the plate at 37° C. in the presence of 5% CO2 at 37° C. After 3 days of incubation, the supernatant was removed, the cells were washed with PBS(−), and the cell lysis buffer supplied with the SingleShot (registered trademark) Cell Lysis Kit (Bio-Rad) was added dropwise at 50 μL/well to lysis the cells thereby providing the cell lysate.
Human RS virus RNA copy number in the cell lysate was determined by quantitative RT-PCR using iTaq Universal SYBR Green One-Step Kit (Bio-Rad). Specifically, primers targeting human RS virus N gene (Rameix-Welti et al, Nat Commun5: 5104, 2014. doi: 10.1038/ncomms6104) was used to prepare the reaction solution according to the instructions provided with the kit, and a 96-well PikoReal Real-Time PCR System (TCR0096, Thermo Fisher Scientific) was used to detect PCR reaction and signal assay.
The copy number was calculated by the relative method using the comparative Ct method using compound-free virus-infected cells as controls.

Q: Which IC50 does the source give for `CC(C)(C)OC(=O)N1C[C@H](O)C[C@H]1c1nc(CCCc2ccccc2)no1` [Compound 3-1, 3-(3-phenylpropyl)-5-[(2S,4R)-1-tert-butoxycarbonyl-4-hydroxypyrrolidin-2-yl]-1,2,4-oxadiazole] here?
A: Its IC50 is greater than 50 µM.

Q: `O=S(=O)(C1CCCCC1)N1C[C@H](O)C[C@H]1c1nc(CCCc2ccccc2)no1` [Compound 3B, 3-(3-phenylpropyl)-5-[(2S,4R)-1-cyclohexylsulfonyl-4-hydroxypyrrolidin-2-yl]-1,2,4-oxadiazole] was tested. Which IC50 did it give?
A: Its IC50 is 10 to 50 µM.

Q: With `CC(C)(C)O[C@@H]1C[C@@H](c2nc(CCCc3ccccc3)no2)N(S(=O)(=O)C2CCCCC2)C1` [Compound 4B, 3-(3-phenylpropyl)-5-[(2S,4R)-4-tert-butoxy-1-cyclohexylsulfonyl-pyrrolidin-2-yl]-1,2,4-oxadiazole] as the compound, how does the IC50 read?
A: The IC50 was less than 10 µM.

Q: `CC(C)CS(=O)(=O)N1CCCC[C@H]1c1nc(CCCc2ccccc2)no1` [Compound 2A, 3-(3-phenylpropyl)-5-[(2S)-1-isobutylsulfonylpiperidin-2-yl]-1,2,4-oxadiazole] was tested. Which IC50 did it give?
A: Its IC50 is 10 to 50 µM.

Q: For `CS(=O)(=O)N1CCC[C@H]1c1nc(CCCc2ccccc2)no1` [Compound 1C, 3-(3-phenylpropyl)-5-[(2S)-1-methanesulfonylpyrrolidin-2-yl]-1,2,4-oxadiazole], which IC50 is on record?
A: The IC50 was greater than 50 µM.

Q: `O=S(=O)(Cc1ccccc1)N1CCCC[C@H]1c1nc(CCCc2ccccc2)no1` [Compound 2E, 3-(3-phenylpropyl)-5-[(2S)-1-benzylsulfonylpiperidin-2-yl]-1,2,4-oxadiazole] was tested. Which IC50 did it give?
A: Its IC50 is less than 10 µM.

Same assay, conditions: 72 h; Vero cells infected with human RS virus A2 strain, 3 days of incubation, RS virus RNA copy number by quantitative RT-PCR; read-out: Anti-RS virus Activity

Q: How did the IC50 turn out when `CC(C)(C)NC(=O)N1CCC[C@H]1c1nc(CCCc2ccccc2)no1` [Compound 1H, (S)—N-(tert-butyl)-2-(3-(3-phenylpropyl)-1,2,4-oxadiazol-5-yl) pyrrolidine-1-carboxamide] was run?
A: The IC50 was greater than 50 µM.

Q: How did the IC50 turn out when `CC(C)(C)OC(=O)N1CCC[C@H]1c1nc(CCc2ccccc2)no1` [Compound 9-1, 3-(2-phenylethyl)-5-[(2S)-1-tert-butoxycarbonylpyrrolidin-2-yl]-1,2,4-oxadiazole] was run?
A: The IC50 was greater than 50 µM.

Q: How did the IC50 turn out when `O=S(=O)(c1ccccc1)N1CC2(CC2)C[C@H]1c1nc(CCCc2ccccc2)no1` [Compound 5D, 3-(3-phenylpropyl)-5-{(6S)-5-benzenesulfonyl-5-azaspiro[2.4]hept-6-yl}-1,2,4-oxadiazole] was run?
A: Its IC50 is greater than 50 µM.

Q: With `COc1ccc(S(=O)(=O)N2CC3(CC3)C[C@H]2c2nc(CCCc3ccccc3)no2)cc1` [Compound 5AI, (S)-5-(5-((4-methoxyphenyl)sulfonyl)-5-azabicyclo[2.4]heptan-6-yl)-3-(3-phenylpropyl)-1,2,4-oxadiazole] as the compound, how does the IC50 read?
A: The IC50 was 10 to 50 µM.

Q: How did the IC50 turn out when `CC(C)CS(=O)(=O)N1CCC[C@H]1c1nc(CNC(=O)c2cccc3ccccc23)no1` [Compound 11A, 3-[(1-naphthoylamino)methyl]-5-[(2S)-1-isobutylsulfonylpyrrolidin-2-yl]-1,2,4-oxadiazole] was run?
A: Its IC50 is less than 10 µM.

Q: `CC(C)(C)NC(=O)N1CCCC[C@H]1c1nc(CCc2ccncc2)no1` [Compound 12H, (S)—N-(tert-butyl)-2-(3-(2-(pyridin-4-yl)ethyl)-1,2,4-oxadiazol-5-yl)piperidine-1-carboxamide] was tested. Which IC50 did it give?
A: The IC50 was 10 to 50 µM.

Q: With `CS(=O)(=O)N1CC(c2ccccc2)C[C@H]1c1nc(CCCc2ccccc2)no1` (stereo in doubt) [Compound 7C, 3-(3-phenylpropyl)-5-[(2S,4S)-1-methanesulfonyl-4-phenylpyrrolidin-2-yl]-1,2,4-oxadiazole] as the compound, how does the IC50 read?
A: Its IC50 is less than 10 µM.

Q: How did the IC50 turn out when `CC(C)(C)OC(=O)N1CCCC[C@H]1c1noc(CCCc2ccccc2)n1` [Compound C3-16-1, Tert-butyl (S)-2-(5-(3-phenylpropyl)-1,2,4-oxadiazol-3-yl) piperidine-1-carboxylate] was run?
A: Its IC50 is less than 10 µM.

Q: Which IC50 does the source give for `CCOC(=O)C1CCN(S(=O)(=O)N2CC(CC3CCC3)CC2c2nc(CCCc3ccccc3)no2)CC1` (stereo not drawn) [Compound 6AC, ethyl 1-((4-(cyclobuthylmethyl)-2-(3-(3-phenylpropyl)-1,2,4-oxadiazole-5-yl)pyrrolidin-1-yl)sulfonyl)piperidin-4-carboxylate] here?
A: The IC50 was 10 to 50 µM.

Q: With `CN(C)c1ccc(S(=O)(=O)N2C[C@H](c3ccccc3)C[C@H]2c2nc(CCCc3ccccc3)no2)cc1` [Compound 7AK, N,N-dimethyl-4-(((2S,4S)-4-phenyl2-(3-(3-phenylpropyl)-1,2,4-oxadiazole-5-yl)pyrrolidin-1-yl)sulfonyl)aniline] as the compound, how does the IC50 read?
A: Its IC50 is less than 10 µM.

Q: Which IC50 does the source give for `CN(C)c1cccc2c(S(=O)(=O)N3CC(CC4CCC4)CC3c3nc(CCCc4ccccc4)no3)cccc12` (stereo not drawn) [Compound 6AL, 5-((4-(cyclobuthylmethyl)-2-(3-(3-phenylpropyl)-1,2,4-oxadiazole-5-yl)pyrrolidin-1-yl)sulfonyl)-N,N-dimethylnaphthalen-1-amine] here?
A: Its IC50 is less than 10 µM.

Q: `CC(C)(C)OC(=O)N1CC2(CC2)C[C@H]1c1nc(CCCc2ccccc2)no1` [Compound 5-1, 3-(3-phenylpropyl)-5-{(6S)-5-tert-butoxycarbonyl-5-azaspiro[2.4]hept-6-yl}-1,2,4-oxadiazole] was tested. Which IC50 did it give?
A: Its IC50 is less than 10 µM.

Q: Which IC50 does the source give for `O=S(=O)(N1CCCCC1)N1CC(CC2CCC2)CC1c1nc(CCCc2ccccc2)no1` (stereo not drawn) [Compound 6AD, 5-(4-(cyclobuthylmethyl)-1-(piperidin-1-ylsulfonyl)pyrrolidin-2-yl)-3-(3-phenylpropyl)-1,2,4-oxadiazole] here?
A: The IC50 was 10 to 50 µM.

Q: Which IC50 does the source give for `CC(C)CS(=O)(=O)N1CC2(CC2)C[C@H]1c1nc(CCCc2ccccc2)no1` [Compound 5A, 3-(3-phenylpropyl)-5-{(6S)-5-isobutylsulfonyl-5-azaspiro[2.4]hept-6-yl}-1,2,4-oxadiazole] here?
A: Its IC50 is less than 10 µM.

Q: For `CC(C)CS(=O)(=O)N1CCCC[C@H]1c1nc(CCc2ccccc2)no1` [Compound 10A, 3-(2-phenylethyl)-5-[(2S)-1-isobutylsulfonylpiperidin-2-yl]-1,2,4-oxadiazole], which IC50 is on record?
A: The IC50 was greater than 50 µM.

Q: With `CC(C)(C)OC(=O)N1CCC(S(=O)(=O)N2C[C@H](c3ccccc3)C[C@H]2c2nc(CCCc3ccccc3)no2)CC1` [Compound 7AO] as the compound, how does the IC50 read?
A: Its IC50 is less than 10 µM.

Q: `CC(C)(C)OC(=O)N1CCC(S(=O)(=O)N2CC3(CC3)C[C@H]2c2nc(CCCc3ccccc3)no2)CC1` [Compound 5AO, tert-buthyl (S)-4-((6-(3-(3-phenylpropyl)-1,2,4-oxadiazole-5-yl)-5-azaspiro[2.4]heptan-5-yl)sulfonyl)piperidin-1-carboxylate] was tested. Which IC50 did it give?
A: The IC50 was less than 10 µM.

Q: How did the IC50 turn out when `O=S(=O)(N1CCOCC1)N1CC2(CC2)C[C@H]1c1nc(CCCc2ccccc2)no1` [Compound 5AE, (S)-4-((6-(3-(3-phenylpropyl)-1,2,4-oxadiazole-5-yl)-5-azaspiro[2.4]heptan-5-yl)sulfonyl)morpholine] was run?
A: The IC50 was 10 to 50 µM.

Q: For `O=C(NCc1cnc2ccccc2c1)N1[C@@H]2CC[C@@H](C2)[C@H]1c1nnc(Cc2c[nH]c3ccccc23)[nH]1` [Compound 24AH], which IC50 is on record?
A: The IC50 was 10 to 50 µM.

Q: Which IC50 does the source give for `O=S(=O)(C1CCCCC1)N1CC2(CC2)C[C@H]1c1nc(CCCc2ccccc2)no1` [Compound 5B, 3-(3-phenylpropyl)-5-{(6S)-5-cyclohexylsulfonyl-5-azaspiro[2.4]hept-6-yl}-1,2,4-oxadiazole] here?
A: The IC50 was less than 10 µM.

Q: How did the IC50 turn out when `O=S(=O)(c1ccccc1)N1CC(c2ccccc2)C[C@H]1c1nc(CCCc2ccccc2)no1` (stereo in doubt) [Compound 7D, 3-(3-phenylpropyl)-5-[(2S,4S)-1-benzenesulfonyl-4-phenylpyrrolidin-2-yl]-1,2,4-oxadiazole] was run?
A: Its IC50 is less than 10 µM.
